Here are results for two molecules from patent US20060293395A1, “Methods for treating a mammal before, during and after cardiac arrest” (priority 2004, published 2006).

Experiment [1] has as its system male domestic pigs. The experiment can be described thus: Example 3: dobutamine vs levosimendan in the porcine model of cardiac arrest and cardiac resuscitation. It counts as in vivo, pig. As for the experimental part:
Experimental Preparation: The experiments were performed in the porcine model of cardiac arrest and cardiac resuscitation which has been extensively exercised. (21,22). […] Anesthesia was initiated by intramuscular injection of ketamine (20 mg kg^−1) and was completed by ear vein injection of sodium pentobarbital (30 mg kg^−1). Additional 8 mg kg^−1 doses of sodium pentobarbital were injected to maintain anesthesia at intervals of one hour. A cuffed endotracheal tube was advanced into the trachea. Animals were mechanically ventilated with a volume of 15 mL kg^−1, peak airway flow of 40 L min^−1, and FiO2 of 0.2 with the aid of a volume-controlled ventilator (Model MA-1, Puritan-Bennett, Carlsbad, Calif.). End-tidal PCO2 (PETCO2) was monitored with an infrared analyzer (Model 01R-7101A, Nihon Kohden Corp, Tokyo, Japan). Respiratory frequency was adjusted to maintain PETCO2 between 35 and 40 mmHg. Blood temperature was maintained at 37±0.5° C. with the aid of infrared heating lamps, as required.
For the measurement of left ventricular functions, a 5.5/7.5 MHz biplane with pulse-wave Doppler transesophageal echocardiographic tranducer with 4-way flexure (Model 21363A, Hewlett-Packard Co. Medical Products Group, Andover, Mass.) was advanced from the incisor teeth into the esophagus for a distance of approximately 40 cm. For the measurement of aortic pressure, a fluid filled catheter was advanced from the surgically exposed left femoral artery into the thoracic aorta. For measurements of right atrial and pulmonary arterial pressures, blood temperature and cardiac output, a 7-French, pentalumen, thermodilution-tipped catheter was advanced from the surgically exposed left femoral vein and flow-directed into the pulmonary artery. For inducing VF, a 5-French pacing catheter (EP Techologies, Inc., Mountain View, Calif.) was advanced from the surgically exposed right cephalic vein into the right ventricle. […] This catheter was then looped laterally and advanced inferiorly for a distance of 5 cm into the great cardiac vein for sampling of coronary venous blood. The electrocardiographic (EKG) lead II was continuously recorded.
Experimental procedure: A total 15 animals were investigated. […] Cardiac arrest was induced with 1 to 2 mA AC delivered to the endocardium of the right ventricle. Mechanical ventilation was discontinued after onset of VF. At the end of a 7-minute interval of untreated VF, precordial compression (PC) was started with a pneumatic piston-driven chest compressor (Thumper, Model 1000, Michigan Instruments, Grand Rapids, Mich.). Coincident with the start of PC, the animal was mechanically ventilated with a tidal volume of […] and FiO2 of 1.0. […] The compression force was adjusted to decrease the anterior-posterior diameter of the chest by 25%. After 5 minutes of PC, defibrillation was attempted with a 150 J biphasic waveform shock delivered between the right infraclavicular area and the cardiac apex. If an organized cardiac rhythm with mean aortic pressure of more than 60 mm Hg persisted for an interval of 5 minutes or more, the animal was regarded as successfully resuscitated. At 10 minutes after restoration of spontaneous circulation (ROSC), one of the three interventions was begun. […] Levosimendan diluted in physiological salt solution was administered in a loading dose of 20 μg kg^−1, infused over 10 minutes, followed by infusion of 0.4 μg kg^−1 min^−1 also in physiologic salt solution for a total duration of 230 minutes.

Experiment [2] has as its system Male Sprague-Dawley rats. In words: Example 1: post-resuscitation myocardial dysfunction after VF cardiac arrest, drug infusion for 240 min post-resuscitation.
Experiment [3] concerns Male Sprague-Dawley rats. The experiment can be described thus: Example 2: dobutamine vs levosimendan for post-resuscitation myocardial failure, 8 min untreated VF + 6 min precordial compression. It counts as in vivo, rat. The procedure:
The animals were anesthetized following intraperitoneal injection of 45 mg kg^−1 pentobarbital. […] No anesthetic agent was administrated during the 30 minute interval prior to inducing cardiac arrest.
Pressures were measured with a high sensitivity pressure transducer (Model 42584-01; Abbott Critical Care System, North Chicago, Ill.). The optimally damped frequency response of the system was 22 Hz. […] Guided by pressure monitoring, the catheter was slowly withdrawn into the right atrium. Right atrial pressure was measured with reference to the mid-chest with another high sensitivity pressure transducer (Abbott model 42584-01). This catheter also served as an injection site for the thermal tracer. A 4 F polyethylene catheter (model C-PMS401J; Cook Critical Care, Bloomington, Ind.) was advanced through the right external jugular vein into the right atrium. A precurved guide wire supplied with the catheter was then advanced through the catheter into the right ventricle until an endocardial electrogram was observed. Another 23-gauge polyethylene catheter (PE 50) was advanced through the left femoral artery into the abdominal aorta for measurement of aortic pressure with the same Abbott high sensitivity transducer and also for sampling arterial blood. […] The thermocouple provided for measurements of blood temperature and thermodilution cardiac output. […] An additional PE 50 catheter was advanced into right femoral vein for drug infusion. EKG lead II was continuously recorded.
Experimental Procedure: A total of 15 animals were investigated. The investigators were blinded to the intervention until immediately prior to inducing VF, at which time the principal investigator opened a sealed envelope for assignment to one of three groups: (1) levosimendan (2) dobutamine or (3) saline placebo. This allowed time for preparation of a fresh dilution of the selected drug. […] Current flow was continued for 3 minutes to prevent spontaneous defibrillation as previously described (Von Planta I, Weil MH. Cardiopulmonary resuscitation in the rat. J Appl Physiol. 1988;65(6):2641-2647). Ventilation was discontinued after onset of VF. Precordial compression was begun with a pneumatically driven mechanical chest compressor after 8 minutes of untreated VF and continued for 6 minutes. These methods have been extensively exercised and have been well-documented (see Von Plata I (supra)) and Sun SJ, Weil MH, Tang W, et al. Combined effects of buffer and adrenergic agent on postresuscitation myocardial function. J Pharm Exp Ther. 1999;291 :773-777). Coincident with the start of precordial compression, the animals were mechanically ventilated. Tidal volume was established at 6.5 ml per kg animal weight, a frequency of 100 min^−1, and on a FiO2 of 1.0.

The subject of experiment [4] is male domestic pigs. The experiment can be described thus: Levosimendan on post-resuscitation myocardial function after beta-adrenergic blockade (propranolol). It counts as in vivo, pig. The procedure:
Anesthesia was initiated by intramuscular injection of ketamine (20 mg/kg) and completed by ear vein injection of sodium pentobarbital (30 mg/kg). Additional doses of sodium pentobarbital (8 mg/kg) were injected to maintain anesthesia at intervals of one hour. A cuffed endotracheal tube was advanced into the trachea. Animals were mechanically ventilated with a volume-controlled ventilator (Model MA-1, Puritan-Bennett, Carlsbad, Calif.) with a tidal volume of 15 mL/kg, peak flow of 40 L/min, and FiO2 of 0.21. End-tidal PCO2 (ETCO2) was monitored with an infrared analyzer (Model 01R-7101A, Nihon Kohden Corp, Tokyo, Japan). Respiratory frequency was adjusted to maintain PETCO2 between 35 and 40 mm Hg.
For the measurement of left ventricular functions, a 5.5/7.5 […] biplane with Doppler transesophageal echocardiographic transducer with 4-way flexure (Model 21363A, Hewlett-Packard Co., Medical Products Group, Andover, Mass.) was advanced from the incisor teeth into the esophagus for a distance of approximately 35 cm. For the measurement of aortic pressure, a fluid-filled catheter was advanced from the left femoral artery into the thoracic aorta. For the measurements of right atrial, pulmonary arterial pressures and blood temperature, a 7-French, pentalumen, thermodilution-tipped catheter was advanced from the left femoral vein and flow-directed into the pulmonary artery. A 7-French catheter was advanced from the left cephalic vein into the great cardiac vein for the measurement of great cardiac vein blood gases and lactate. For inducing VF, a 5-French pacing catheter (EP Technologies, Inc., Mountain View, Calif.) was advanced from the right cephalic vein into the right ventricle.
The investigators were blinded to the randomization. Cardiac arrest was induced with 1 to 2 mA AC delivered to the endocardium of the right ventricle. Mechanical ventilation was discontinued after onset of VF. At the end of the 7-min interval of untreated VF, precordial compression was started with a pneumatic piston-driven chest compressor (Thumper, Model 1000, Michigan Instruments, Grand Rapids, Mich.). […] The compression force was adjusted to decrease the anterior-posterior diameter of the chest by 25%. After 5 min of precordial compression, defibrillation was attempted with a 150 J biphasic waveform shock delivered between the right infraclavicular area and the cardiac apex. If an organized cardiac rhythm with mean aortic pressure of more than 60 mm Hg persisted for an interval of 5 min or more, the animal was regarded as successfully resuscitated. All animals had restoration of spontaneous circulation (ROSC) after electrical defibrillation, and were then randomized to three treatment groups: (1) propranolol (0.1 mg/kg bolus at 6 min of VF); (2) propranolol plus levosimendan (at 10 min after post resuscitation, 20 μg/kg over 10 min followed by 0.4 μg/kg/min for 220 min); and (3) equal volumes of saline as placebo.
Measurements were obtained over an interval of 4 hours following resuscitation. After 4 hours, animals were euthanized by intravenous injection of 150 mg kg^−1 pentobarbital. Autopsy was performed to document injuries to the bony thorax and the thoracic and abdominal viscera.

Setting [5] is: compared to saline placebo / control (FIG. 27).

Entries after “also recorded” stand apart in the source; their conditions may differ.

Regarding `CC(CCc1ccc(O)cc1)NCCc1ccc(O)c(O)c1` (centres unmarked) [Dobutamine], the heart rate result with male domestic pigs [1] (among the three groups) is given as “did not differ”; in the experiment on Male Sprague-Dawley rats [2] (post-resuscitation (FIG. 5)), “increases in heart rate of borderline significance”; with Male Sprague-Dawley rats [3] (after administration, post-resuscitation), “moderate increase in heart rate”. In addition, in the experiment with male domestic pigs [1] (between levosimendan and dobutamine), the arterial pressure result is listed as “no differences in arterial pressure”. Further, in the experiment on male domestic pigs [1] (vs saline placebo (FIG. 16)), the cardiac output result is “Significantly greater cardiac output”. Moreover, the arterial pressures entry in the experiment on Male Sprague-Dawley rats [2] (among the three groups, at PR10 and after administration of the drugs (FIG. 4)) is “No significant differences”. Moreover, the cardiac index entry was “comparable increases in cardiac index” with Male Sprague-Dawley rats [2] (post-resuscitation (FIG. 6)) and “significant increases in cardiac index” in the experiment with Male Sprague-Dawley rats [3] (post-resuscitation (FIG. 13)). Also, in the experiment on Male Sprague-Dawley rats [2] (post-resuscitation (FIG. 10)), the “lusitropic (relaxation) effect” value was “more profound lusitropic (relaxation) effect”. In addition, the stroke volume entry in the experiment with Male Sprague-Dawley rats [2] (post-resuscitation, initially (FIG. 7)) was “significantly greater stroke volumes”. Moreover, in the experiment on Male Sprague-Dawley rats [3] (between the three groups), the “mean arterial pressure (MAP)” value is on record as “no significant differences”. In the experiment with Male Sprague-Dawley rats [3] (observed over 72 hours, least with saline placebo (FIG. 15)), the duration of survival entry was “intermediate”. The dP/dt40 result with Male Sprague-Dawley rats [3] (vs saline placebo (FIG. 14)) is “Significantly greater”. In the experiment with Male Sprague-Dawley rats [3] (vs saline placebo (FIG. 14)), the “−dP/dt” value is “Significantly greater”.
As to `CC(C)NCC(O)COc1cccc2ccccc12` (centres unmarked) [propranolol], the “postresuscitation ST segment elevation in ECG limb lead 2” value with male domestic pigs [4] (5 min after resuscitation (FIG. 26)) was “lesser; also recorded: significantly improved”. Moreover, the “number of postresuscitation premature ventricular beats” value in the experiment on male domestic pigs [4] (5 min interval after ROSC (FIG. 26)) is recorded as “significantly lesser number; also recorded: significantly improved”. In the experiment on male domestic pigs [4] (setting [5]), the FAC result is “significantly increased; also recorded: significantly greater” and the “Postresuscitation ejection fractions (EF)” value is “significantly increased; also recorded: significantly greater”. Further, the “total energies of electrical shocks” value with male domestic pigs [4] (propranolol 0.1 mg/kg bolus at 6 min of VF) is listed as “significantly lesser total energies”. For the same molecule, the “number of electrical shocks” value in the experiment with male domestic pigs [4] (propranolol 0.1 mg/kg bolus at 6 min of VF (FIG. 26)) is recorded as “significantly smaller number; also recorded: significantly improved”.
